According to PMC7249060, “The Antiproliferative Effects of Flavonoid MAO Inhibitors on Prostate Cancer Cells” (Molecules, 2020):

Key:
LNCaP cells [1] = assay: Antiproliferation screen assay, resazurin, 72 h; assay type: cell-based, human; conditions: 50 μM
Method: (§1) In this screen, we examined the growth inhibitory effects of all synthesized KKRs on the three human PCa cell lines LNCaP, DU145, and PC3. The antiproliferative clinical drug TAX of 0.25 μM was used as a positive control. Additionally, different standards of MAO-Is and FLUT were tested for their effect on the LNCaP cells. Briefly, the procedures and materials used were the same as for the viability assay except for the following—cultured cells were seeded at 10,000 cells/175-µL/well related experimental media, and the resazurin solution was added after 72 h of incubation with the compounds of 50 μM each.

DU145 cells [2] = assay: Antiproliferation screen assay, resazurin, 72 h; assay type: cell-based, human; conditions: 50 μM
Method: as §1

PC3 cells [3] = assay: Antiproliferation screen assay, resazurin, 72 h; assay type: cell-based, human; conditions: 50 μM
Method: as §1

hMAO-B = biological target: T1, hMAO-B (Homo sapiens, UniProt P27338); assay: MAO-Glow luminescence screen of KKRs at 100 μM; assay type: biochemical; conditions: 100 μM screen
T1 construct: purchased Sigma-Aldrich Co. (St. Louis, MO, USA)
T1 sequence (P27338 1-520): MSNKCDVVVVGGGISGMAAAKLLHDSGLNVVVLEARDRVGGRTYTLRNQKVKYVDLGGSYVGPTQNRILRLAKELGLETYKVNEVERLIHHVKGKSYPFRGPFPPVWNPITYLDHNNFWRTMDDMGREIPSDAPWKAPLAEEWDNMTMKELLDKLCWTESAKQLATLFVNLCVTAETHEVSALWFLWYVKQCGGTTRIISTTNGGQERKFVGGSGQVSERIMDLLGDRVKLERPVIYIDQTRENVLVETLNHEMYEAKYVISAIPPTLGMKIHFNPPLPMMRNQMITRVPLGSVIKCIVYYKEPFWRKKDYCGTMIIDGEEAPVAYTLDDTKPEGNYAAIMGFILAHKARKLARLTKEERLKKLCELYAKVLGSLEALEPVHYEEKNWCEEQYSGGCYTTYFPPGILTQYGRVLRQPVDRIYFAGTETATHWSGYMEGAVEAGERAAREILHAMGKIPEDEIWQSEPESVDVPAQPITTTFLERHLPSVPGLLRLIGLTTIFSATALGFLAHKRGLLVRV
Method: (§2) We optimized our control hMAO-A and hMAO-B isozymes reactions in the incubation condition, at 37 °C for 1 h, by performing a luminescence assay using the MAO-Glow™ kit. Upon arrival, each isozyme was diluted with 10 mM HEPES in cold HBSS of pH 7.4. Afterward, the diluted isozymes were kept at −80 °C until use. Enzyme concentration optimization was accomplished by testing ten 2X serially diluted hMAO-A and hMAO-B concentrations for a final range of 7.00–0.01 U/mL each. The tested isozymes were incubated with LDS of 40 and 4 μM for isozymes A and B, respectively (recommended by Promega protocol), and a maximum of used DMSO of 1% final concentration. Different isozyme concentrations reactions at their initial velocities were monitored. Consequently, their required concentrations were defined to be 0.44 U/mL each. Additionally, ten different LDS concentrations, ranging from 0.3–150 μM, were monitored for optimizing and validating the linearity of the initial reaction for the hMAO-A mode of action. Subsequently, we chose a saturated substrate of 75 μM as a required concentration for the hMAO-A enzyme kinetic reactions.
(§3) The inhibitory effects of the synthesized KKRs of hMAO-A and B were tested by measuring the decrease in arbitrary light units (ALU) signal produced by the optimized isozymes using the MAO-Glow™ Assay at 37 °C. In this assay, DMSO stock for each KKR compound was diluted with a reaction buffer of pH 7.4 to make a 4X working solution for a maximum final concentration of 100 μM and ≤1% DMSO. The experiments were run in the absence and presence of 4X the miscellaneous standards of MAO-BIs (DEP, PARG, and SAF) and MAO-AIs (PIRL and CLORG), with similar concentrations. In white opaque 96-well microplates, 12.5 μL of each compound was plated at RT and was followed by 25 μL of 2X cold hMAO-A or hMAO-B, for a final concentration of 0.44 U/mL. A related buffer substituted each isozyme to make the blank wells and substituted each compound to make the negative control wells. Following this, we added 12.5 μL of 4X LDS to make a final substrate concentration of 40- and 4-μM for hMAO-A and hMAO-B, respectively. All screen plates were incubated at 37 °C for 60 min. The plates of 50 μL/well were then taken out from the incubator, and their reactions were stopped by an equal volume of 50 μL of reporter luciferin detection reagent (RLDR). After 30 min, the luminescence signals for all plates were read on a Synergy HTX Multi-reader from Bio-Tek (Winooski, VT, USA).

hMAO-A = biological target: T2, hMAO-A (Homo sapiens, UniProt P21397); assay: MAO-Glow luminescence screen of KKRs at 100 μM; assay type: biochemical; conditions: 100 μM screen
T2 construct: purchased Sigma-Aldrich Co. (St. Louis, MO, USA)
T2 sequence (P21397 1-527): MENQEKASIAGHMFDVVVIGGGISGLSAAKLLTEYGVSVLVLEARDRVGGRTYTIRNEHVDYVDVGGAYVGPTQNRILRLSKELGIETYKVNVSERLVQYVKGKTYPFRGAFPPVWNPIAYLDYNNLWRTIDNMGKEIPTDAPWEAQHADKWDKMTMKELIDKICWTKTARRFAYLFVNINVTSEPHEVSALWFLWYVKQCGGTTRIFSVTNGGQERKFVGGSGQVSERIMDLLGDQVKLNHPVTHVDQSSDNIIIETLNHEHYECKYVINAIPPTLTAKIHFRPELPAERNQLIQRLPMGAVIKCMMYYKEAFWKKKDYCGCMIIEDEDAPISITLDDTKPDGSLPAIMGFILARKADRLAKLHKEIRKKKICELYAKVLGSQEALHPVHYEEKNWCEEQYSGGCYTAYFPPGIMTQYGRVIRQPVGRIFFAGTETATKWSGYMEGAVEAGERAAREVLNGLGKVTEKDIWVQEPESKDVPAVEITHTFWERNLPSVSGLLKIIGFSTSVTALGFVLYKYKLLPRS
Method: as §2, §3

LNCaP cells [4] = assay: Antiproliferation dose-response assay for 72 h; assay type: cell-based; conditions: Homo sapiens, mean ± SEM of two experiments, read-out: antiproliferative IC50
Method: (§4) For the top effective KKRs, along with TAX, their potency to reduce the affected PCa cell line growth in a dose-dependent manner was determined using the resazurin fluorescence assay. We followed the same protocols and materials used for the antiproliferation screen assays (Section 4.3.2), with the following modifications. The maximum final KKR concentration used was 40 μM. The concentration of 8X of each KKR working solution in 1% HEPES 7.4 was serially diluted in a 3:1 ratio, compound to buffer, respectively. Each data set was collected from ten data points of 3.7–40 μM range. The control had the KKR substituted with buffer. The related IC50 averages were analyzed for the compounds that affected the cell lines the most.

DU145 cells [5] = assay: Antiproliferation dose-response assay for 72 h; assay type: cell-based; conditions: Homo sapiens, DU-145; DU145, 72 h, mean ± SEM of two experiments; read-out: antiproliferative IC50
Method: as §4

PC3 cells [6] = assay: Antiproliferation dose-response assay for 72 h; assay type: cell-based; conditions: Homo sapiens, PC-3; PC3, 72 h, mean ± SEM of two experiments; read-out: antiproliferative IC50
Method: as §4

LNCaP cells [7] = assay: Viability screen assay, resazurin, 24 h; assay type: cell-based, human; conditions: 50 μM, 90% viability as margin of cytotoxicity
Method: We examined the cytotoxic effects of all 20 synthesized KKRs on the three human PCa cell lines LNCaP, DU145, and PC3, after a 24 h exposure period. Non-toxic TAX was used for comparison. Briefly, cultured cells were seeded in black transparent bottom 96-well microplates at 50,000 cells/175-µL/well in experimental media (RPMI1640 for LNCaP, EMEM for DU145, and DMEM/F12K for PC3), supplied with 5% FBS and 1% P/S. Wells of media without cells were considered blanks and negative controls. The plates were incubated overnight at 37 °C in 5% CO2 to allow cell attachment. For each compound, a working solution of 8X KKR in sterile […] HEPES in HBSS pH buffer of 7.4 was prepared for a final concentration of 50 μM each. The three attached cell types were treated immediately with the related buffer being added to the control wells. A sterile fluorescence-based solution of the resazurin reagent of 0.5 mg/mL in HBSS was prepared. After 24 h, the cells were exposed to 15% v/v of the sterile resazurin reagent, and the plates were re-incubated for 4.5 h to allow redox reaction. All plates were read under 530/590-nm excitation/emission wavelengths using Bio-Tek Synergy HTX Multi-reader as a microplate fluorescence reader.

In the case of `COc1cc(O)c(C(=O)/C=C/c2cc(OC)c(OC)c(OC)c2)c(OC)c1` [KKR17, (E)-1-(2-hydroxy-4,6-dimethoxyphenyl)-3-(3,4,5-trimethoxyphenyl)prop-2-en-1-one], the “antiproliferative effect in screen” value (LNCaP cells [1]) is reported as “top five KKRs that kept standing out with antiproliferative effects”, the “antiproliferative effect in screen” value (DU145 cells [2]) is reported as “top effective” and the “antiproliferative effect in screen” value (PC3 cells [3]) is reported as “effective against all investigated cell lines, including the metastatic PC3”. For the same molecule, the “MAO inhibitory property in MAO screen” value (hMAO-B) was “did not have MAO inhibitory properties”, the “MAO inhibitory property in MAO screen” value (hMAO-A) was “did not have MAO inhibitory properties” and the IC50 (LNCaP cells [4]) was 21 ± 1 µM. The IC50 (DU145 cells [5]) was 9 ± 0.5 µM, the IC50 (PC3 cells [6]) was 34 ± 1 µM and the “cytotoxicity / cell viability” value (LNCaP cells [7]) was “affected the LNCaP cells”.
